Source: patent US12246081B2, “Deodorant compositions” (Conopco, Inc., priority 2017, dated 2025)

Test system: S. hominis B10 C-S β lyase
Assay: Transformation of Cys-3M3SH to 3M3SH by purified S. hominis B10 C-S β lyase
Type: biochemical, Staphylococcus hominis
Conditions: for % inhibition: 2 mM Cys-3M3SH, 35° C. for 24 hours, relative to control without compound; for susceptibility of S. hominis C-S β-lyase to inhibition by classical inhibitors: qualitative statement, no concentration given
Source text: The compounds identified by present invention represent a new class of deodorant actives that can be screened by the method disclosed herein. The method uses an odour-generating C-S β-lyase, in particular S. hominis B10 C-S β-lyase. In accordance with the procedure detailed in Example 1, the medium of the screening method comprises a 20 millimolar concentration of the compound to be screened. The medium further comprises S. hominis C-S β-lyase enzyme and 2 millimolar Cys-3M3SH. Following an incubation at 35° C. for a period of 24 hours, the reduction in 3M3SH released by S. hominis C-S β-lyase from Cys-3M3SH is measured. Herein, the inhibition of 3M3SH level is relative to a control without any compound being screened. In preferred embodiments, following the procedure detailed in Example 1, the medium comprises a 10 millimolar concentration of compound to be screened. In further preferred embodiments, the concentration of the compound to be screened can be 5 millimolar, preferably 2 millimolar, more preferably 1 millimolar, most preferably 0.5 millimolar.
The deodorant actives affecting S. hominis C-S β lyase are identified by using the following procedure. The Cys-3M3SH used in the procedure may be obtained using a method described in Chem. Biodivers., 2, 2005, 705-716. The purified S. hominis B10 C-S β lyase was prepared by cloning the gene encoding this enzyme into Escherichia coli using methodology known in the art. Recombinant S. hominis B10 C-S β-lyase was then expressed in E. coli and purified by immobilised metal ion affinity chromatography. M9 salts are mixtures of 6 g/L Na2HPO4, 3 g/L KH2PO4, 0.5 g/L NaCl, adjusted to pH 7.0 with NaOH.
Glass reaction tubes were set up, each containing 2 mM Cys-3M3SH (dissolved in M9 salts), 50 μM pyridoxal phosphate, purified S. hominis B10 C-S β lyase to a final concentration of 10 μg/ml, and M9 salts (or, where appropriate, a test material dissolved in M9 salts at, for example, 20 mM) to adjust the volume to 500 μl. Enzyme only (C-S beta-lyase) and substrate only (Cys-3M3SH) reactions were also included in each experiment. The reactions were incubated with shaking at 35° C. for 24 hours. To measure released 3M3SH, each reaction vial was first centrifuged at 13,000 rpm for 2 minutes. A volume of 0.095 ml labelling solution, consisting of 0.080 ml dH2O, 0.010 ml Tris (pH 8.0) and 0.005 ml 5,5′-dithiobis-(2-nitrobenzoic acid) (DTNB) stock solution (50 mM sodium acetate, 2 mM DTNB, dissolved in dH2O) was added to each well of a micro-titre plate. 0.005 ml of each reaction supernatant was added to the wells of the micro-titre plate, which was then incubated at room temperature for 5 minutes. Absorbance (A412) values, which correlate with the concentration of 3M3SH present, were recorded using a spectrophotometer. […] In these cases, a HPLC analysis was carried out according to the methodology described in J. Pharm. Biomed. Anal. 2008; 48:1375-80 and FEMS Microbiol. Lett., 263(16), 2015, fnv111.

[1] = material concentration = 2 millimolar
[2] = material concentration = 20 millimolar

Compound | % inhibition [1] [%] | % inhibition [2] [%] | % inhibition (material concentration = 2 millimolar, listed as Cl) | susceptibility of S. hominis C-S β-lyase to inhibition by classical inhibitors
1,8-Dioxa-4-azaspiro[4.5]decane-3-carboxylic acid(N-CBz protected) [EX17] | 54.1 |  |  | 
1-oxa-4-azaspiro[4.5]decane-3-carboxylic acid(N-CBz protected) [EX16] | 30.3 |  |  | 
2-(2-furyl)1,3-thiazolide-4-carboxylic acid [EX4] | 20.8 | 80.4 |  | 
N[C@H](COCc1ccccc1)C(=O)O [C1, O-benzyl-D-serine, reference compound] | 0 | 8.2 | does not present significant reduction of malodour | 
COc1ccc(C2NC(C(=O)O)CS2)cc1O (stereo not shown) [EX1, 2-(3-hydroxy-4-methoxy-phenyl)-thiazolidine-4-carboxylic acid] | 34.9 | 100 |  | 
COc1cc(C2NC(C(=O)O)CS2)ccc1O (stereo not shown) [EX2, 2-(4-hydroxy-3-methoxyphenyl)-1,3-thiazolidine-4-carboxylic acid] | 32.9 | 100 |  | 
O=C(O)C1CSC2(CCC3(CC2)OCCO3)N1 (stereo not shown) [EX3, 1,4-dioxa-9-thia-12-azadispirol[4.2.4.2]tetradecane-11-carboxylic acid] | 32.3 | 80.6 |  | 
CCC(CC)C1NC(C(=O)O)CS1 (stereo not shown) [EX5, 2-(1-ethylpropyl)-4-thiazolidine-4-carboxylic acid] | 46 | 94.1 |  | 
O=C(O)C1CSC2(CCCCC2)N1 (stereo not shown) [EX6, 1-thia-4-azaspiro[4.5]decane-3-carboxylic acid] | 90.9 | 100 |  | 
O=C(O)C1CSC2(CCN(Cc3ccccc3)CC2)N1 (stereo not shown) [EX7, 8-benzyl-1-thia-4,8-diazaspiro[4.5]decane-3-carboxylic acid] | 11.9 | 87.8 |  | 
O=C(O)C1CSC(c2ccccc2)N1 (stereo not shown) [EX8, 2-phenylthiazolidine-4-carboxylic acid] | 12.3 | 95.9 |  | 
C=CCOc1ccc(C2NC(C(=O)O)CS2)cc1 (stereo not shown) [EX9, 2-(4-(allyloxy)phenyl)-1,3-thiazolidine-4-carboxylic acid] | 39.7 | 100 |  | 
COc1ccc(C2NC(C(=O)O)CS2)cc1 (stereo not shown) [EX10, 2-(4-methoxyphenyl)-1,3-thiazolidine-4-carboxylic acid] | 24.5 | 88.2 |  | 
CCCCCCC1NC(C(=O)O)CS1 (stereo not shown) [EX11, 2-hexyl-1,3-thiazolane-4-carboxylic acid] | 87.5 | 100 |  | 
O=C(O)C1CSC(c2ccccc2O)N1 (stereo not shown) [EX12, 2-(2-hydroxy-pheny)-thiazolidine-4-carboxylic acid] | 46.5 | 100 |  | 
N[C@H]1CONC1=O [L-cycloserine, reference compound] |  |  |  | much less susceptible to inhibition
NOCC(=O)O [aminooxyacetic acid, reference compound] |  |  |  | much less susceptible to inhibition
